Values after ≈ are worked out from the molar mass of the structure shown. Like-named read-outs stand apart in the source and are kept apart here.
Columns and labels:
[1] = tested on: Staphylococcus aureus NRS100 (COL); experiment: MIC, Table 12; format: cell-based
Experimental: (§1) Table 12 illustrates the results and the minimal inhibitory concentration (MIC) for S. aureus, Enterococcus faecalis, Pseudomonas aeruginosa, Klebsiella pneumonia, and Proteus mirabilis. The inoculum is about 1.5×10^5 CFU/mL. The minimal inhibitory concentrations (MIC) were done in Muller-Hinton II Broth with the exception of Enterococcus faecalis ATCC 29212, which was done in Brain Heart Infusion Broth. The concentration of DMSO at 200 μg/mL was 10%.

[2] = tested on: Enterococcus faecalis ATCC 29212; experiment: MIC, Table 12; format: cell-based
Experimental: as §1

[3] = tested on: Staphylococcus aureus NRS1 (Mec^r. Vani); experiment: MIC, Table 12; format: cell-based
Experimental: as §1

[4] = tested on: Staphylococcus aureus (COLVA); experiment: MIC, Table 12; format: cell-based
Experimental: as §1

[5] = tested on: Staphylococcus aureus ATCC 29213; experiment: MIC, Table 12; format: cell-based
Experimental: as §1

[6] = tested on: methicillin-resistant strains of S. aureus; experiment: MIC against methicillin-resistant S. aureus (Table 15); format: cell-based; conditions: Staphylococcus aureus, dissolved in 100% DMSO, diluted into Mueller Hinton II Broth to final 16 μg/mL
Description: Table 15 illustrates the inhibition of methicillin-resistant strains of S. aureus by selected compounds of the invention.

S. aureus NRS100 (Mec^R) = experiment: MIC against S. aureus NRS100 (Table 14); format: cell-based, Staphylococcus aureus; conditions: Staphylococcus aureus, compounds dissolved in DMSO or 1% sodium carbonate, read-out: MIC
Experimental: The recited compounds were dissolved in DMSO or in 1% sodium carbonate and transferred into micro titer plate to final concentration of 1000 μg/mL.

[7] = molecular target: OXA-10 (class D β-lactamase) (Pseudomonas aeruginosa, UniProt P14489); experiment: β-Lactamase assay (nitrocefin colour change), OXA-10; format: biochemical; conditions: for OXA-10: Table 10, class symbols x/xx/xxx, key not given; for IC50: nitrocefin 100 μM, 10 nM enzyme, 5 min pre-incubation, read-out: IC50s OXA-10
Experimental: (§2) β-Lactamase Assays (TEM-1, P99, and OXA-10): The activity of the compounds of the invention (inhibitors) toward β-lactamases was evaluated using 96 well plates. The reaction mixture included 10 mM sodium phosphate, pH 7.0, 150 mM sodium chloride, 0.01% Triton X-100, 100 μM nitrocefin, 10 nM of β-lactamases (class A: TEM-1; class C: P99, or class D: OXA-10), and variable concentrations of the inhibitors in a total volume of 100 μL. β-Lactamases were pre-incubated with the compounds at room temperature for 5 minutes, and the assay was initiated by the addition of nitrocefin. The inhibition of the enzyme activity by the compounds was determined by monitoring color change (from yellow to red) of nitrocefin after 20 minutes. Stock solutions of the compounds were prepared in dimethyl sulfoxide (DMSO). No more than 5% DMSO was present in assays, unless noted otherwise. B1aR Assay: The surface domain of B1aR (1 μM) was added to each inhibitor (at various concentrations) in 100 mM sodium phosphate, 50 mM sodium bicarbonate, at pH 7.0. The reaction mixtures were incubated at room temperature for 20 minutes. BOCILLIN FL, a fluorogenic ligand, was added to a concentration of 20 μM in a final volume of 20 μL. The mixtures were incubated at 37° C. for 5 minutes, at which point the reactions were quenched by the addition of 15 μL of the SDS sample buffer (125 mM Tris, 4% SDS, 20% glycerol, 2% 2-mercaptoethanol, pH 6.8), and were boiled for 4 minutes. The samples were loaded onto 15% SDS-PAGE, the gel was developed and scanned using a Storm 840® Fluorimager. The fluorescent bands of BOCILLIN FL-labeled B1aR^S were analyzed by Image Quant 5.2 software. PBP2 Assay: The PBP2 assay was performed according to the methods of Villegas-Esterada et al. (J. Am. Chem. Soc. 2008, 130, 9212-9213).

surface domain of B1aR = surface domain of B1aR (Staphylococcus aureus, UniProt P18357); experiment: B1aR assay (BOCILLIN FL labeling, SDS-PAGE); format: binding, Staphylococcus aureus (MRSA); conditions: Table 10; class symbols x/xx/xxx, key not given
Experimental: as §2

[8] = molecular target: TEM-1 (class A β-lactamase) (Escherichia coli, UniProt P62593); experiment: β-Lactamase assay (nitrocefin colour change), TEM-1; format: biochemical; conditions: for TEM-1: Table 10, class symbols x/xx/xxx, key not given
Experimental: as §2

[9] = molecular target: P99 (class C β-lactamase) (Enterobacter cloacae, UniProt P05364); experiment: β-Lactamase assay (nitrocefin colour change), P99; format: biochemical; conditions: for P99: Table 10, class symbols x/xx/xxx, key not given; for IC50: nitrocefin 100 μM, 10 nM enzyme, 5 min pre-incubation, read-out: IC50s P99
Experimental: as §2

PBP2a = PBP2a (Staphylococcus aureus, UniProt P07944); experiment: PBP2 assay (Villegas-Esterada et al.); format: biochemical; conditions: Table 10
Experimental: as §2

[10] = tested on: Proteus mirabilis ATCC 35659; experiment: MIC, Table 12; format: cell-based; conditions: ATCC35659, Muller-Hinton II Broth
Experimental: as §1

[11] = tested on: Klebsiella pneumonia ATCC 33495; experiment: MIC, Table 12; format: cell-based; conditions: Klebsiella pneumoniae, ATCC33495, Muller-Hinton II Broth
Experimental: as §1

[12] = tested on: Pseudomonas aeruginosa ATCC 27853; experiment: MIC, Table 12; format: cell-based; conditions: ATCC27853, Muller-Hinton II Broth
Experimental: as §1

[13] = tested on: Escherichia coli ATCC 29194; experiment: MIC, Table 12; format: cell-based; conditions: ATCC29194, Muller-Hinton II Broth
[14] = Staphylococcus aureus NRS100 (COL), Muller-Hinton II Broth, read-out: MIC
[15] = ATCC29212, Enterococcus faecalis ATCC 29212, Brain Heart Infusion Broth, inoculum about 1.5×10^5 CFU/mL, read-out: MIC
[16] = Staphylococcus aureus NRS1 (Mec^r. Vani), Muller-Hinton II Broth, read-out: MIC
[17] = ATCC29213, Staphylococcus aureus ATCC 29213, Muller-Hinton II Broth, read-out: MIC

P99 (class C β-lactamase), sequence (P05364 21-381): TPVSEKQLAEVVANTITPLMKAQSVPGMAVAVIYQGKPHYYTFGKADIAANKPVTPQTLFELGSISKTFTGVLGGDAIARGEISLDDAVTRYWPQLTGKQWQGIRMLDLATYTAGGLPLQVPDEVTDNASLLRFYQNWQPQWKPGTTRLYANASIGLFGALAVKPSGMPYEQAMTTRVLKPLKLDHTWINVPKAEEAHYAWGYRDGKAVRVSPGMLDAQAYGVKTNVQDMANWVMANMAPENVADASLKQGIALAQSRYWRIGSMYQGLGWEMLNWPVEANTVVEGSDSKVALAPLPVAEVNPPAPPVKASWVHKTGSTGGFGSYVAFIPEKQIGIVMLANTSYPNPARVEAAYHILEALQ
TEM-1 (class A β-lactamase), sequence (P62593 24-286 limits assumed): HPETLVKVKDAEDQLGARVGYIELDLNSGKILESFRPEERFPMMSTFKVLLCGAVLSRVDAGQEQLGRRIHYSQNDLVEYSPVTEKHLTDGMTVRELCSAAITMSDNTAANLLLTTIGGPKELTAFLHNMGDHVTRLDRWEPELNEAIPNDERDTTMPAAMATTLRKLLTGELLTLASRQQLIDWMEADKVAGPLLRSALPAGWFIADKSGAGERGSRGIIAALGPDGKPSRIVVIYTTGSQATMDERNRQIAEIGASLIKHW
OXA-10 (class D β-lactamase), sequence (P14489 20-266, species assumed): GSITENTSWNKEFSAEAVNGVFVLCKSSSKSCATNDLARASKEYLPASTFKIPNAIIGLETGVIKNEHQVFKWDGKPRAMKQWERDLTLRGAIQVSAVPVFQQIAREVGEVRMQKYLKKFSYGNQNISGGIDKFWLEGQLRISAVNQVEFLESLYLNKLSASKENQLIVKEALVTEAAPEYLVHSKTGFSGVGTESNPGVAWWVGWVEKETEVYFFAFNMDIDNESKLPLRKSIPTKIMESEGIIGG
surface domain of B1aR, sequence (P18357 331-585): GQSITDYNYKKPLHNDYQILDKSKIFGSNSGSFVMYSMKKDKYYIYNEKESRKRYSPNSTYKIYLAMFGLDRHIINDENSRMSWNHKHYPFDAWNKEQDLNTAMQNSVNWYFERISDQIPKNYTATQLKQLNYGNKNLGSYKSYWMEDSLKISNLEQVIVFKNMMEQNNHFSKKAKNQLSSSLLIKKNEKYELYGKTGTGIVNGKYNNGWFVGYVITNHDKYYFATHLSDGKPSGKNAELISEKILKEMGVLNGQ
PBP2a, sequence (P07944 whole entry): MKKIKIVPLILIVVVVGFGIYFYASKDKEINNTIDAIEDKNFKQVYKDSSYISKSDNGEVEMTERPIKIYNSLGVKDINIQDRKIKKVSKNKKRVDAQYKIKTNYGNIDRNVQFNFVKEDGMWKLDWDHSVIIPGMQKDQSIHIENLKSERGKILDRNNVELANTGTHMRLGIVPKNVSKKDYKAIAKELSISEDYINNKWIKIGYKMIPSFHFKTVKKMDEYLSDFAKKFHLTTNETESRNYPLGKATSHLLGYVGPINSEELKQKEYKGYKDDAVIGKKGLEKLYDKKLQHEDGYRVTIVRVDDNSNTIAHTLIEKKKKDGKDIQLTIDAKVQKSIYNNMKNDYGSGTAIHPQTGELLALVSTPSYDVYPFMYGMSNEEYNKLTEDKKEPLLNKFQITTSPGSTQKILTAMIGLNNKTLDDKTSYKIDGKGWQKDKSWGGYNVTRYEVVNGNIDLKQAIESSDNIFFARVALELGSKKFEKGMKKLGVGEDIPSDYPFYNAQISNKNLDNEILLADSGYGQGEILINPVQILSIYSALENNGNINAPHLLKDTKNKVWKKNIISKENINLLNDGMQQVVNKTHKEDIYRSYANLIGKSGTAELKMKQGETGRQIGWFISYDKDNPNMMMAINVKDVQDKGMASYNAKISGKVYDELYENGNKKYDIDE

Compound	MIC (S. aureus NRS100 (Mec^R)) [µg/mL]	OXA-10 [7]	IC50 [7] [µM]	BlaR (surface domain of B1aR)	IC50 [8] [µM]	TEM-1 [8]	P99 [9]	IC50 [9] [µM]	MIC [1, 14] [µg/mL]	MIC [2, 15] [µg/mL]	MIC [3, 16] [µg/mL]	MIC ([4]; Staphylococcus aureus) [µg/mL]	MIC [10] [µg/mL]	MIC [5, 17] [µg/mL]	MIC [11] [µg/mL]	MIC [12] [µg/mL]	MIC [13] [µg/mL]	further results
Cc1onc(-c2ccccc2)c1C(=O)N[C@@H]1C(=O)N2[C@@H]1SC(C)(C)[C@@H]2C(=O)O [Oxaxillian, reference compound]																		MIC ([1]; Staphylococcus aureus NRS100 (COL), Muller-Hinton II Broth): 500 µg/mL (≈ 1250 µM); MIC ([2]; Enterococcus faecalis ATCC 29212, Brain Heart Infusion Broth, inoculum about 1.5×10^5 CFU/mL): 8 µg/mL (≈ 19.9 µM); MIC ([3]; Staphylococcus aureus NRS1 (Mec^r. Vani), Muller-Hinton II Broth): 500 µg/mL (≈ 1250 µM); MIC ([4]; Staphylococcus aureus (COLVA), Muller-Hinton II Broth): 500 µg/mL (≈ 1250 µM); MIC ([5]; Staphylococcus aureus ATCC 29213, Muller-Hinton II Broth): <0.5 µg/mL
O=C(O)c1c(Br)c(Br)c(Br)c(Br)c1C(=O)Nc1ccc(OCc2cccc(OC(F)(F)F)c2)c(Cl)c1 [Compound 420]	8 (≈ 10.2 µM)	xxx	8.4 ± 1.1	xxx	1.6 ± 0.1	xxx	xx	6.9 ± 1.5										MIC [6]: 4 µg/mL (≈ 5.12 µM); PBP2a* (inhibitory concentration) (PBP2a): xxx
CCCCCCCCOc1ccc(NC(=O)c2c(Cl)c(Cl)c(Cl)c(Cl)c2C(=O)O)cc1 [Compound 265]		xxx	9.9 ± 0.8		3.6 ± 0.5	xxx	xxx	10.3 ± 0.3	6 (≈ 11.8 µM)	6 (≈ 11.8 µM)	6 (≈ 11.8 µM)	6 (≈ 11.8 µM)	200 (≈ 394 µM)	6 (≈ 11.8 µM)	200 (≈ 394 µM)	200 (≈ 394 µM)	200 (≈ 394 µM)	
CCCCCCCCOc1ccc(NC(=O)c2c(Br)c(Br)c(Br)c(Br)c2C(=O)O)cc1 [Compound 274]		xxx	5.5 ± 0.5		2.4 ± 0.1	xxx	xxx	3.1 ± 0.5	3 (≈ 4.38 µM)	100 (≈ 146 µM)	3 (≈ 4.38 µM)	3 (≈ 4.38 µM)	400 (≈ 584 µM)	3 (≈ 4.38 µM)	200 (≈ 292 µM)	200 (≈ 292 µM)	400 (≈ 584 µM)	
O=C(O)c1c(Cl)c(Cl)c(Cl)c(Cl)c1C(=O)Nc1ccc(OCc2cccc(OC(F)(F)F)c2)c(Cl)c1 [Compound 419]	8 (≈ 13.3 µM)	xxx	10.8 ± 0.7	xxx	2.3 ± 0.1	xxx	xx	13 ± 2										MIC [6]: 8 µg/mL (≈ 13.3 µM); PBP2a* (inhibitory concentration) (PBP2a): xxx
CN[C@H](CC(C)C)C(=O)N[C@H]1C(=O)N[C@@H](CC(N)=O)C(=O)N[C@H]2C(=O)N[C@H]3C(=O)N[C@H](C(=O)N[C@H](C(=O)O)c4cc(O)cc(O)c4-c4cc3ccc4O)[C@H](O)c3ccc(c(Cl)c3)Oc3cc2cc(c3O[C@@H]2O[C@H](CO)[C@@H](O)[C@H](O)[C@H]2O[C@H]2C[C@](C)(N)[C@H](O)[C@H](C)O2)Oc2ccc(cc2Cl)[C@H]1O [Vancomycin, reference compound]												1000 (≈ 690 µM)						MIC ([1]; Staphylococcus aureus, NRS100): 1 µg/mL (≈ 0.69 µM); MIC ([2]; Enterococcus faecalis, ATCC29212): 4 µg/mL (≈ 2.76 µM); MIC ([3]; Staphylococcus aureus, NRS1): 4 µg/mL (≈ 2.76 µM); MIC ([5]; Staphylococcus aureus, ATCC29213): 1 µg/mL (≈ 0.69 µM)
O=C(O)c1c(Cl)c(Cl)c(Cl)c(Cl)c1C(=O)Nc1ccc(OCc2ccccc2)c(Cl)c1 [Compound 253]	> 16	xxx	222 ± 17	xx	32.3 ± 5.9	xxx	xxx	105 ± 8.7	50 (≈ 96.2 µM)	200 (≈ 385 µM)	50 (≈ 96.2 µM)	50 (≈ 96.2 µM)	400 (≈ 770 µM)	50 (≈ 96.2 µM)	200 (≈ 385 µM)	200 (≈ 385 µM)	400 (≈ 770 µM)	
O=C(O)c1c(Br)c(Br)c(Br)c(Br)c1C(=O)Nc1ccc(OCc2ccccc2)c(Cl)c1 [Compound 239]									100 (≈ 143 µM)	200 (≈ 287 µM)	50 (≈ 71.7 µM)	25 (≈ 35.8 µM)	400 (≈ 574 µM)	25 (≈ 35.8 µM)	200 (≈ 287 µM)	200 (≈ 287 µM)	400 (≈ 574 µM)	

Reference: patent publication US8859620B2, “Phthalanilate compounds and methods of use” (University of Notre Dame du Lac, priority 2009, dated 2014)
